ChEMBL document CHEMBL1201862, “PubChem BioAssay data set” (2004)
One block for each compound: values may come before it. Calls of active or inactive are those of the source.

Columns and labels:
[1] = biological target: T1, Corticotropin-releasing factor receptor 2/Corticotropin-releasing factor-binding protein (Homo sapiens, UniProt P24387+Q13324); test: Dose Response confirmation of uHTS hits for small molecule antagonists of the CRF-binding protein and CRF-R2 receptor complex.; format: functional; settings: read-out: IC50_Mean
T1 sequence (Q13324 whole entry): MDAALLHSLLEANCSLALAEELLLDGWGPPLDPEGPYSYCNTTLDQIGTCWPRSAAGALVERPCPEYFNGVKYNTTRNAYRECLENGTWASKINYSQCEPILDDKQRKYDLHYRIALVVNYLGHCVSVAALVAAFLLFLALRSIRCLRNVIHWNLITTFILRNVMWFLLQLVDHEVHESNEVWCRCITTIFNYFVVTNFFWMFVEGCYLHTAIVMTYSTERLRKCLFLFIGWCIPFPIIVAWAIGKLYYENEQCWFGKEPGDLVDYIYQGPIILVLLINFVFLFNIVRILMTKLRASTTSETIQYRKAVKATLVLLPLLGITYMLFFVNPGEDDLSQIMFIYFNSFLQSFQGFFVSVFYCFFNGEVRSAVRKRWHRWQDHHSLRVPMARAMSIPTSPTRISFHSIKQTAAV
T1 sequence (P24387 whole entry): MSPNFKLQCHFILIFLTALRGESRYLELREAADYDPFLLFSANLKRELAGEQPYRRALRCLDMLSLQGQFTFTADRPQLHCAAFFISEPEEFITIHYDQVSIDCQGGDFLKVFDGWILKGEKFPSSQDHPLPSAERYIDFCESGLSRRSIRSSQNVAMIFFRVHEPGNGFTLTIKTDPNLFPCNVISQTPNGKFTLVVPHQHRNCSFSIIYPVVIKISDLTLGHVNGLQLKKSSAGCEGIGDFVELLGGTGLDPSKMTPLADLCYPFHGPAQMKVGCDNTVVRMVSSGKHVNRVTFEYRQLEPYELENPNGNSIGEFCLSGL

[2] = CRF-BP/CRF-R2 complex antagonists, dose response, cell-based, uHTS hits, 384-well (AID 651639); format: functional, Homo sapiens; settings: read-out: IC50_Mean
[3] = biological target: T1, Corticotropin-releasing factor receptor 2/Corticotropin-releasing factor-binding protein; test: activators of CRF receptor 2 with binding protein – uHTS hits, confirmation (AID 602473); format: functional; settings: read-out: EC50_Mean
[4] = biological target: T2, Sentrin-specific protease 6 (Homo sapiens, UniProt Q9GZR1); format: functional;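 further: Luminescence-based dose-response confirmatory assay of SENP6 inhibition, following up an ultra-high-throughput screen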
T2 sequence (Q9GZR1 whole entry): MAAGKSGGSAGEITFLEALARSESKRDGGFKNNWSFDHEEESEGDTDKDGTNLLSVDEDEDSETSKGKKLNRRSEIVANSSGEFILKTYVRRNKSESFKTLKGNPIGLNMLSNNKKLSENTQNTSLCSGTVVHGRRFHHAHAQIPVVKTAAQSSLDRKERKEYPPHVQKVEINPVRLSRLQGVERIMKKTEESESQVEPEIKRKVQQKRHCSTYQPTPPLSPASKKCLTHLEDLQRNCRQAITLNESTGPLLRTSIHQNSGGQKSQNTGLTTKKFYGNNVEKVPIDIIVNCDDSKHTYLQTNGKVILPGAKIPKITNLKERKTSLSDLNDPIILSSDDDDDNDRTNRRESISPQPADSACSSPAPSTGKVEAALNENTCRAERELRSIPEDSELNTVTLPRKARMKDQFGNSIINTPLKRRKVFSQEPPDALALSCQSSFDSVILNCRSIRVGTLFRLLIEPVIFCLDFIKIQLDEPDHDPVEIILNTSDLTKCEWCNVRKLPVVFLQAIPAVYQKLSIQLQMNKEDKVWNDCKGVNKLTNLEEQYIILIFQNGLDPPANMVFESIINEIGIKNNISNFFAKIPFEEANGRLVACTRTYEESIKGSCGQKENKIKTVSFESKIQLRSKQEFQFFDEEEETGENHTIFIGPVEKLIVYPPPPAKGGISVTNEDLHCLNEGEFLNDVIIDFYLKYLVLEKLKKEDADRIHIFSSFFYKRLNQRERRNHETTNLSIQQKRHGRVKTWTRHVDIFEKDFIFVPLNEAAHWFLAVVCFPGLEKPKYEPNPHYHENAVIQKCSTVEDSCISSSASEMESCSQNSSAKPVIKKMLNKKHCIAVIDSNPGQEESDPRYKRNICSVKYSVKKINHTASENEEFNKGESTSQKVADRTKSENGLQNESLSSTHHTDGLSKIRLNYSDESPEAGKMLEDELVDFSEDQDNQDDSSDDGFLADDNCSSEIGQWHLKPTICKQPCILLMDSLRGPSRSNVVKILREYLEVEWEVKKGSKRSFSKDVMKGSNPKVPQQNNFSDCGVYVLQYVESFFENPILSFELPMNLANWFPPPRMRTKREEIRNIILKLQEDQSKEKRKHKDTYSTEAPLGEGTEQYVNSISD

[5] = test system: Streptococcus sp. 'group A'; test: growth inhibition of control SK(-) GAS strain, dose response, counter-screen for streptokinase expression inhibitor project, luminescence, kanamycin, BacTiterGlo, confirmation (AID 1900); format: functional, organism-based
[6] = biological target: Melanocortin receptor 4 (Homo sapiens, UniProt P32245); format: functional, cell-based;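 further: Cell-based assay with luminescence read-out, confirmatory dose-response testing for agonist activity of biased ligands at MC4R; human U2OS cells with tagged receptor and beta-arrestin; potency of agonists that increase receptor coupling to beta-arrestin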
[7] = test system: Streptococcus; test: Group A Streptococcus viability loss, dose response, counter-screen for streptokinase expression inhibitor project, luminescence, BacTiterGlo (AID 1915); format: functional, organism-based;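 further: potency for reduction of bacterial viability or growth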
[8] = biological target: T3, Sentrin-specific protease 8 (Homo sapiens, UniProt Q96LD8); format: functional;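 further: luminescence read-out of SENP8 inhibition, dose-response confirmation following an ultra-high-throughput screen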
T3 sequence (Q96LD8 whole entry): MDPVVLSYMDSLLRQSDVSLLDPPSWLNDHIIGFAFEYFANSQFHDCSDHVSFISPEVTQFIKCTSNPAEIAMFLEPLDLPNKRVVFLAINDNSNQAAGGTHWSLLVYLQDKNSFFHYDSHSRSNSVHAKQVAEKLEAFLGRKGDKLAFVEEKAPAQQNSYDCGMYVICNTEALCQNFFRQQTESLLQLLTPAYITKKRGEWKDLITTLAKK

[9] = biological target: T4, Calpain-2 catalytic subunit (Sus scrofa, UniProt P43367); test: pig calpain II inhibitor potency, dose response, biochemical, fluorogenic peptide substrate (AID 1420); format: functional
T4 sequence (P43367 whole entry): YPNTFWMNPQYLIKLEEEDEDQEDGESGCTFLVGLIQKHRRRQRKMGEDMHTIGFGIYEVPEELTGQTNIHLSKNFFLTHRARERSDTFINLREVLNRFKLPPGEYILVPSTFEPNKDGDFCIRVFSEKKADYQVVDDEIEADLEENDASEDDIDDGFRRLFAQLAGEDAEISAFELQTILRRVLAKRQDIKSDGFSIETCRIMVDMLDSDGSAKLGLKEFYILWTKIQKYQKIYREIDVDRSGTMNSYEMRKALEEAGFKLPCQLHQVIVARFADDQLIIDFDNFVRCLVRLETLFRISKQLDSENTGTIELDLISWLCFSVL

[10] = biological target: T5, Caspase-3 (Homo sapiens, UniProt P42574); format: functional;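 further: Dose-response selectivity test against caspase-3 for candidate inhibitors of sentrin-specific proteases (SENPs)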
T5 sequence (P42574 whole entry): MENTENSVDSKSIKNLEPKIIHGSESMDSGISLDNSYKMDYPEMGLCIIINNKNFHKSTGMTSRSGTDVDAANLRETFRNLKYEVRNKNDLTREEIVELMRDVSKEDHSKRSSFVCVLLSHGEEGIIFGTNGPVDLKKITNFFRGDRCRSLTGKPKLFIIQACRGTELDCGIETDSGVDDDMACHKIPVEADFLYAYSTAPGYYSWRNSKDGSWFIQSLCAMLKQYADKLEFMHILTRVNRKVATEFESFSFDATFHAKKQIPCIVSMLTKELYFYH

[11] = biological target: T6, Sentrin-specific protease 7 (Homo sapiens, UniProt Q9BQF6); format: functional;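 further: Luminescence-based dose-response confirmation of ultra-high-throughput screening hits, measuring inhibition of SENP7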
T6 sequence (Q9BQF6 whole entry): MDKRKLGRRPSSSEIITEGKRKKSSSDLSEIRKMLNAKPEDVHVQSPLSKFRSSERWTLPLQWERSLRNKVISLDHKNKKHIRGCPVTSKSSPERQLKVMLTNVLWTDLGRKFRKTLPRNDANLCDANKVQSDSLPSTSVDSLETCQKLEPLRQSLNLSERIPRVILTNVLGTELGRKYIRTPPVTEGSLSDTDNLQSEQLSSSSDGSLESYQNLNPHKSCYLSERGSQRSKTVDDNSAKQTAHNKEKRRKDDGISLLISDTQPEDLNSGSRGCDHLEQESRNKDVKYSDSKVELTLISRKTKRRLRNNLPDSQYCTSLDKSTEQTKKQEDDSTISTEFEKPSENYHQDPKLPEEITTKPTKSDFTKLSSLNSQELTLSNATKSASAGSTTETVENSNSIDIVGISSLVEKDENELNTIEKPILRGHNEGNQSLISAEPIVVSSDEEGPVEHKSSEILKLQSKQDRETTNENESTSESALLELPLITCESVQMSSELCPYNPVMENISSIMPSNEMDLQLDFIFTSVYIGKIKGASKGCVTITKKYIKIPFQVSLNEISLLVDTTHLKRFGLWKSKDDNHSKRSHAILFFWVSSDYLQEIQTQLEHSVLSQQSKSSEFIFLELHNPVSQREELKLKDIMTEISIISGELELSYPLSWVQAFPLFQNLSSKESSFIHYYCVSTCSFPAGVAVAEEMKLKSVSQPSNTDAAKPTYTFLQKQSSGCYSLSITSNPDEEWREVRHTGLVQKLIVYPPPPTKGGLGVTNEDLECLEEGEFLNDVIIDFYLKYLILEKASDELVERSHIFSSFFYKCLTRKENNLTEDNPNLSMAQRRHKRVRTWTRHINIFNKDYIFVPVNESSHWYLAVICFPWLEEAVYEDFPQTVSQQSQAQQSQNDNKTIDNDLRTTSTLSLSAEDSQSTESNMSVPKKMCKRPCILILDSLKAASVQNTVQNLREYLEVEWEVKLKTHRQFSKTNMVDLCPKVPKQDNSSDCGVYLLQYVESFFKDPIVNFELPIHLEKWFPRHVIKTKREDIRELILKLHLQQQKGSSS

[12] = test system: INS1; test: beta cell apoptosis inhibitors, cytokine rescue, dose response, luminescence, retest (AID 449756); format: functional, cell-based; settings: Rattus norvegicus;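 further: cell death triggered by IL-1 beta plus TNF-alpha plus IFN-gamma mixture; protective hits raise ATP signal compared with cytokine alone wells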
[13] = biological target: Protein Wnt-3a (Mus musculus, UniProt P27467); test: Wnt3a-driven reporter signaling inhibition, dose response, selectivity assay for Gli-SUFU antagonist project, Wnt-LIGHT cells, luminescence (AID 651570); format: functional; settings: read-out: IC50_Mean;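 further: Wnt-LIGHT reporter cells stimulated with conditioned medium from Wnt3a-producing cells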
Sequence of Protein Wnt-3a (P27467 whole entry): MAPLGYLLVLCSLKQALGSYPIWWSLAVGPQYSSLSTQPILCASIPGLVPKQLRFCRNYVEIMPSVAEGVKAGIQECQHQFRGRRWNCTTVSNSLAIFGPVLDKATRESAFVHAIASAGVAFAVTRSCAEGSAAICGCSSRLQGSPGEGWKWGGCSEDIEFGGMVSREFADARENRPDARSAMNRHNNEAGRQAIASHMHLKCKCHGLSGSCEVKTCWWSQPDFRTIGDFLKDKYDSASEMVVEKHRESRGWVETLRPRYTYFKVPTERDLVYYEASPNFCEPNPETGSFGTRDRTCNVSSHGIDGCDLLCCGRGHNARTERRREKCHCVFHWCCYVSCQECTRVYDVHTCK

Sequence of Melanocortin receptor 4 (P32245 whole entry): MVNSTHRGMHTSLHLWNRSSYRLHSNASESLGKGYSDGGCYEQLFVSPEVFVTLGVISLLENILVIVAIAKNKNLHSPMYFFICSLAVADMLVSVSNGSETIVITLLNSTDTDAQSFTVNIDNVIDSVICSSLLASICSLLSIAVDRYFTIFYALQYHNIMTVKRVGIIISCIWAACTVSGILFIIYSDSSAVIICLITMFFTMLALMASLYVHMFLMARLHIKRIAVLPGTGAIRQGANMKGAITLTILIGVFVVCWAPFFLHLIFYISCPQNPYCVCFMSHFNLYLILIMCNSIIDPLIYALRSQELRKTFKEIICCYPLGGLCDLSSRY

IC50 [1]: 33.5 µM (active) | IC50 [2]: > 20 µM (inactive) | EC50 [3]: > 53 µM (inactive)
SMILES: Cc1ccc(Cl)cc1N1CCN(C(=O)Cc2c(C(=O)O)[nH]c3ccccc23)CC1

IC50 [13]: 8.95 µM (active)
SMILES: CCCCCn1c(=N)n(CC(O)COc2ccccc2OC)c2ccccc21 (configuration not stated)

IC50 [1]: 2.98 µM (active) | IC50 [2]: > 20 µM (inactive) | EC50 [3]: 15.9 µM (active)
SMILES: Cc1c(CC(Cl)(Cl)Cl)c2c(n1O)CC(C)(C)CC2=O

The next lines start with the compound.

SMILES: COc1cc(O)c(CC=C(C)C)c(O)c1C(=O)CCc1ccc(O)cc1 [DIHYDROXANTHOHUMOL]
IC50 [4]: 10 µM (active) | EC50 [5]: 2.79 µM (active) | EC50 [6]: > 89.2 µM (inactive) | EC50 [7]: 3.05 µM (active) | IC50 [8]: 13.3 µM (active) | IC50 [9]: 5 µM (not active) | IC50 [10]: > 100 µM (inactive) | IC50 [11]: 7.82 µM (active)

SMILES: CCOc1ccc(OCc2ccc(C(=O)NN=Cc3ccc[nH]3)cc2)cc1
AC50 [12]: 0.372 µM (active) | IC50 [13]: 5.48 µM (active)
